Key:
microglia [1] = assay: CD11c expression and morphology in primary culture of mouse microglia; format: cell-based
Procedure: Brains from neonatal (P0-P1) C57Bl/6J mice were stripped of their meninges and minced with scissors under a dissecting microscope (Zeiss, Stemi DV4, Germany) in Leibovitz-15 medium (Biological Industries, Kibbutz Beit Ha-Emek, Israel). After trypsinization (0.5% trypsin, 10 min, 37° C./5% CO2), the tissue was triturated. The cell suspension was washed in culture medium for glial cells [DMEM supplemented with 10% fetal calf serum (FCS; Sigma-Aldrich, Rehovot), L-glutamine (1 mM), sodium pyruvate (1 mM), penicillin (100 U/ml), and streptomycin ([…])] and cultured at 37° C./5% CO2 in 75-cm^2 Falcon tissue-culture flasks (BD Biosciences) coated with poly-D-lysine (PDL) (10 mg/ml; Sigma-Aldrich, Rehovot) in borate buffer (2.37 g borax and 1.55 g boric acid dissolved in 500 ml sterile water, pH 8.4) for 1 h, then rinsed thoroughly with sterile, glass-distilled water. Half of the medium was changed after 6 h in culture and every 2nd day thereafter, starting on day 2, for a total culture time of 10-14 days. Microglia were shaken off the primary mixed brain glial cell cultures (150 rpm, 37° C., 6 h) with maximum yields between days 10 and 14, seeded (10^5 cells/ml) onto PDL-pretreated 24-well plates (1 ml/well; Corning, N.Y., N.Y.), and grown in culture medium for microglia [RPMI-1640 medium (Sigma-Aldrich, Rehovot) supplemented with 10% FCS, L-glutamine (1 mM), sodium pyruvate (1 mM), β-mercaptoethanol ([…]), penicillin (100 U/ml), and streptomycin ([…])]. The cells were allowed to adhere to the surface of a PDL-coated culture flask (30 min, 37° C./5% CO2), and non-adherent cells were rinsed off.
Cover slips from co-cultures of NPCs and mouse microglia were washed with PBS, fixed as described above, treated with a permeabilization/blocking solution containing 10% FCS, 2% bovine serum albumin, 1% glycine, and 0.1% Triton X-100 (Sigma-Aldrich, Rehovot), and stained with a combination of mouse anti-[…] (anti-βIII-T) isoform C-terminus antibodies (1:500; Chemicon, Temecula, Calif.), rat anti-CD11b (MAC1; 1:50; BD—Pharmingen, Franklin Lakes, N.J.) and hamster anti-CD11c (1:100; eBioscience, San Diego, Calif.). To capture the microglia FITC- or Cy3-conjugated Bandeiraea simplicifolia isolectin B4 (IB-4; 1:50; Sigma-Aldrich, Rehovot) was used. To detect expression of human Aβ anti-Aβ (human amino-acid residues 1-17) (mouse, clone 6E10; Chemicon) was used.
On the basis of our previous findings, we suspected that the switch from a CD11b^+/CD11c^−/IGF-1^− to a CD11b^+/CD11c^+/IGF-I^+ microglial phenotype in the Cop-1 vaccinated Tg-AD mice might be attributable to IL-4. We examined this possibility in vitro. […] In contrast, the expression of CD11c induced by IL-4 was not transient. Quantification of the ability of IL-4 to induce CD11c expression even after the microglia were pretreated with Aβ is shown in FIG. 4D.
Thus, upregulation of CD11c on bone marrow derived myeloid cells by […] will allow the cells to reach injured sites and induce beneficial effect.

microglia [2] = assay: Engulfment of aggregated Aβ(1-40) by activated microglia; format: cell-based, mouse; details: 10 ng/ml; Aβ(1-40) 5 μg/ml for 1 h, vs untreated microglia (FIG. 5)
Procedure: FIGS. 5A-5B show engulfment of aggregated Aβ by activated microglia. Microglia were treated with IL-4 (10 ng/ml) 24 h after seeding (MG(IL-4)) or were left untreated for 48 h (MG(−)). The media were then replaced by a labeling medium (DMEM containing 10 mg/ml bovine serum albumin), and aggregated Aβ(1-40) was added (5 μg/ml) for 1 h. Following incubation the cultures were fixed and immunostained with antibodies directed to human Aβ and co-stained for microglia (IB-4). (FIG. 5A) Confocal photomicrographs. (FIG. 5B) Quantitative analysis expressed as intensity per cell. Results of one of two experiments, each containing eight replicates (20-30 cells per replicate) per group are presented (means±SD).
Brains from neonatal (P0-P1) C57Bl/6J mice were stripped of their meninges and minced with scissors under a dissecting microscope (Zeiss, Stemi DV4, Germany) in Leibovitz-15 medium (Biological Industries, Kibbutz Beit Ha-Emek, Israel). After trypsinization (0.5% trypsin, 10 min, 37° C./5% CO2), the tissue was triturated. […]

[3] = tested on: neural stem/progenitor cells (NPCs) co-cultured with microglia; assay: Co-culture of GFP-expressing neural progenitor cells with treated microglia, neurogenesis (GFP+/βIII-T+ cells); format: cell-based, mouse; details: cytokine 10 ng/ml added for 48 h after 48 h aggregated Aβ(1-40) 5 μM
Procedure: Coronal sections (2 mm thick) of tissue containing the subventricular zone of the lateral ventricle were obtained from the brains of adult C57Bl/6J mice. The tissue was minced and then incubated for digestion at 37° C., 5% CO2 for 45 min in Earle's balanced salt solution containing 0.94 mg/ml papain (Worthington, Lakewood, N.J.) and 0.18 mg/ml of L-cysteine and EDTA. After centrifugation at 110×g for 15 min at room temperature, the tissue was mechanically dissociated by pipette trituration. Cells obtained from single-cell suspensions were plated (3500 cells/cm^2) in 75-cm^2 Falcon tissue-culture flasks (BD Biosciences, San Diego, Calif.), in neural stem/progenitor cell (NPC)-culturing medium [Dulbecco's modified Eagles's medium (DMEM)/F12 medium (Gibco/Invitrogen, Carlsbad, Calif.) containing 2 mM L-glutamine, 0.6% glucose, 9.6 μg/ml putrescine, 6.3 ng/ml progesterone, 5.2 ng/ml sodium selenite, 0.02 mg/ml insulin, 0.1 mg/ml transferrin, 2 μg/ml heparin (all from Sigma-Aldrich, Rehovot, Israel), fibroblast growth factor-2 (human recombinant, 20 ng/ml), and epidermal growth factor (human recombinant, 20 ng/ml; both from Peprotech, Rocky Hill, N.J.)]. Spheres were passaged every 4-6 days and replated as single cells. Green fluorescent protein (GFP)-expressing NPCs were obtained as previously described (Pluchino et al., 2003).
Brains from neonatal (P0-P1) C57Bl/6J mice were stripped of their meninges and minced with scissors under a dissecting microscope (Zeiss, Stemi DV4, Germany) in Leibovitz-15 medium (Biological Industries, Kibbutz Beit Ha-Emek, Israel). After trypsinization (0.5% trypsin, 10 min, 37° C./5% CO2), the tissue was triturated. The cell suspension was washed in culture medium for glial cells [DMEM supplemented with 10% fetal calf serum (FCS; Sigma-Aldrich, Rehovot), L-glutamine (1 mM), sodium pyruvate (1 mM), penicillin (100 U/ml), and streptomycin ([…])] and cultured at 37° C./5% CO2 in 75-cm^2 Falcon tissue-culture flasks (BD Biosciences) coated with poly-D-lysine (PDL) (10 mg/ml; Sigma-Aldrich, Rehovot) in borate buffer (2.37 g borax and 1.55 g boric acid dissolved in 500 ml sterile water, pH 8.4) for 1 h, then rinsed thoroughly with sterile, glass-distilled water. Half of the medium was changed after 6 h in culture and every 2nd day thereafter, starting on day 2, for a total culture time of 10-14 days. […]

microglia [4] = details: added to microglia activated by aggregated Aβ (Butovsky et al., 2005); cited from earlier work

Substance: IL-4: recombinant mouse IL-4, a cytokine derived from T-helper (Th)-2 cells
- CD11c expression by microglia (microglia [1]; 5-day microglia cultures, vs untreated (FIG. 4A)): abundantly expressed
- persistence of induced CD11c expression as a function of time in culture (microglia [1]; FIG. 4C): not transient
- CD11c expression by microglia pre-exposed to Aβ (microglia [1]; cytokine added 3 days after exposure to aggregated Aβ(1-40) (FIG. 4B, 4D)): able to induce them to express CD11c
- amoeboid morphology of Aβ-treated microglia (microglia [1]; on addition of cytokine, dendritic-like morphology (FIG. 4B)): reversible on addition of IL-4
- ability of microglia to engulf aggregated Aβ(1-40) (intracellular immunoreactive Aβ) (microglia [2]): did not interfere with the ability of microglia to engulf Aβ
- counteracting the negative effect of Aβ-activated microglia on NPC survival and differentiation [3]: partially counteracted
- effect on Aβ-induced down-regulation of IGF-I, up-regulation of TNF-α and failure to act as APCs (microglia [4]): can reverse the down-regulation of IGF-I expression

Source: patent US9089509B2, “Method of treatment of age-related macular degeneration” (YEDA RESEARCH AND DEVELOPMENT CO., LTD., priority 2006, dated 2015)
